Holding throughout (format): cell-based
In test [1] the test system is NCI-H226 cells. As to the kind of experiment: NCI-H226 proliferation assay (in house). The note with it: Homo sapiens, 120 h, 5 days, Cell TiterGlo, 20-point 1:2 dilution from 20 μM. A digest of the protocol:
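Viability by CellTiter-Glo luminescence after 5-day compound exposure at 37 °C, 5% CO2. Compounds added 24 h post-seeding (500 cells/well, RPMI 1640 with 10% FBS) as 20-point, 2-fold series from 20 μM final, triplicate wells.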
(In general: Cellular ATP, detected with luciferase, serves as a proxy for viable cell number.)

Test [2] deals with NCI-H226 cells. As to the kind of experiment: NCI-H226 proliferation assay (Wuxi AppTec). Particulars: Homo sapiens, 168 h, 7 days, CellTiter-Glo, top dose 10, 3-fold dilution, 9 doses. How it is done:
[…] Proliferation Assay (From Wuxi AppTec CO.):
Day −1: Seeding cells • (1) Equilibrate cell culture medium to 37° C. • (2) Remove and discard the culture medium. • (3) Briefly rinse the cell layer with PBS to remove all traces of serum that contains […]. • (4) Add 2-3 mL of Trypsin-EDTA solution to flask and observe cells under an inverted microscope until cell layer is dispersed. • (5) Add 6-8 mL of growth medium to terminate the digestion of Trypsin/EDTA. • (6) Centrifuge the mixture (Trypsin EDTA and the growth medium) at 1000 rpm for 5 mins. • (7) Discard the supernatant, suspend the cell precipitation with the fresh growth medium, then take 1 mL the cell suspension to count cells with Vi-cell XR cell viability analyzer. • (8) Adjust the cell density to 500 cells/well for 384-well plates. • (9) Add 50 µL/well volume cell suspension to the assay plate. • (10) Add […] media to the control columns. • (11) Incubate the plate at 37° C., 5% CO2 for overnight. Day 0: Compounds treatment • (1) Add cpds to each well by Tecan HP D300E. The top dose is […], 3-fold dilution and 9 doses. DMSO final concentration will be normalized to 0.2%. • (2) Incubate the assay plate at 37° C., 5% CO2 for 7 days. Day 7: Plate read • (1) Equilibrate the assay plate to the room temperature for nearly 30 minutes. • (2) Add […] CellTiter-Glo reagent to each well and shake the plate for 1 min, incubate 10 min and keep them from light. • (3) Detect the plate by EnVision. Data analysis:
Max: Average of the DMSO group Min: Average of medium group.

Test [3] concerns transcriptional activity of TEADs. As to the kind of experiment: TEAD reporter assay (MCF7 TEAD-LUC reporter cells). The note with it: Homo sapiens, 24 hours, BrightGlo luminescence. A digest of the protocol:
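Luminescence (BrightGlo) was read after 24 h of compound treatment at 37 °C, 5 % CO2. Cells had been seeded at 5,000 per well in DMEM with 10 % FBS and insulin and rested 24 h first. Dosing used 20 points, 1:2 dilution from 20 μM final, triplicates.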
(In general: In a reporter assay the amount or activity of a reporter protein is the signal.)

Consider 23 compounds from patent US20250206722A1, “SMALL MOLECULE INHIBITORS OF TEA DOMAIN FAMILY MEMBERS” (The Scripps Research Institute, priority 2022, published 2025).

Take `C#CCC1CN(c2nccnc2Nc2ccc(C(F)(F)F)cc2)CCN1C(=O)C=C` (stereo not drawn) [Example 23, 1-(2-(prop-2-yn-1-yl)-4-(3-((4-(trifluoromethyl)phenyl)amino)pyrazin-2-yl)piperazin-1-yl)prop-2-en-1-one]: the IC50 (as a rule, the concentration that gives 50% inhibition) in the test on NCI-H226 cells [1] is 0.651 µM; with NCI-H226 cells [2] it was 0.151 µM; in test [3], 0.3 nM.

Consider `C=CC(=O)N1CCN(c2nccnc2Nc2ccc(OC(F)F)cc2)CC1` [Example 35, 1-(4-(3-((4-(difluoromethoxy)phenyl)amino)pyrazin-2-yl)piperazin-1-yl)prop-2-en-1-one], for which the IC50 with NCI-H226 cells [1] turned out to be 0.084 µM; in the test with NCI-H226 cells [2], 0.028 µM; in test [3], 0.8 nM.

The compound `C=CC(=O)N1CCN(c2nccnc2Nc2ccc(C(F)(F)F)c(OC)c2)CC1` [Example 37, 1-(4-(3-((3-methoxy-4-(trifluoromethyl)phenyl)amino)pyrazin-2-yl)piperazin-1-yl)prop-2-en-1-one] displayed an IC50 in the test on NCI-H226 cells [2] of 0.078 µM.

Regarding `C=CC(=O)N1CCN(c2nccnc2Nc2ccc(C#N)cc2)CC1` [Example 38, 4-((3-(4-acryloylpiperazin-1-yl)pyrazin-2-yl)amino)benzonitrile], 0.42 µM corresponded to half-maximal inhibition in the test with NCI-H226 cells [2] (IC50).

Take `C=CC(=O)N1CC=C(c2nccnc2Nc2ccc(C(F)(F)F)cn2)CC1` [Example 43, 1-(4-(3-((5-(trifluoromethyl)pyridin-2-yl)amino)pyrazin-2-yl)-3,6-dihydropyridin-1(2H)-yl)prop-2-en-1-one]: the 50% inhibitory concentration (IC50) with NCI-H226 cells [1] is 0.006 µM; with NCI-H226 cells [2], 0.011 µM; in test [3], 1 nM.

In the case of `C=CC(=O)N1CCC(c2nccnc2Nc2ccc(C(F)(F)F)cn2)CC1` [Example 44, 1-(4-(3-((5-(trifluoromethyl)pyridin-2-yl)amino)pyrazin-2-yl)piperidin-1-yl)prop-2-en-1-one], the IC50 in the test with NCI-H226 cells [1] came to 0.012 µM; with NCI-H226 cells [2] it was 0.02 µM; in test [3], 1.4 nM.

As for `C=C(F)C(=O)N1CCN(c2nccnc2Nc2ccc(C(F)(F)F)nc2)CC1` [Example 46, 2-fluoro-1-(4-(3-((6-(trifluoromethyl)pyridin-3-yl)amino)pyrazin-2-yl)piperazin-1-yl)prop-2-en-1-one], the IC50 in the test on NCI-H226 cells [1] worked out at 1.63 µM; in the test with NCI-H226 cells [2], 0.452 µM; in test [3], 0.6 nM.

As for `C=CC(=O)N1CCN(c2nccnc2Nc2ccc(OC(F)(F)F)nc2)CC1` [Example 48, 1-(4-(3-((6-(trifluoromethoxy)pyridin-3-yl)amino)pyrazin-2-yl)piperazin-1-yl)prop-2-en-1-one], the IC50 with NCI-H226 cells [1] stood at 0.023 µM; in the test with NCI-H226 cells [2] it was 0.032 µM; in test [3], 0.7 nM.

As for `C=CC(=O)N1CCN(c2nccnc2Nc2ccc(OC(F)F)nc2)CC1` [Example 49, 1-(4-(3-((6-(difluoromethoxy)pyridin-3-yl)amino)pyrazin-2-yl)piperazin-1-yl)prop-2-en-1-one], the IC50 was found to be 0.055 µM with NCI-H226 cells [1], 0.031 µM in the test on NCI-H226 cells [2] and 2 nM in test [3].

For `C=CC(=O)N1CCN(c2nccnc2Nc2cnc(C(F)(F)F)c(F)c2)CC1` [Example 50, 1-(4-(3-((5-fluoro-6-(trifluoromethyl)pyridin-3-yl)amino)pyrazin-2-yl)piperazin-1-yl)prop-2-en-1-one], the values for the IC50 (in the test with NCI-H226 cells [1]; in the test with NCI-H226 cells [2]; in test [3]) were 0.034 µM, 0.026 µM and 3.1 nM, respectively.

In the test on NCI-H226 cells [2], `C=CC(=O)N1CC=C(c2nccnc2Nc2ccc(OC(F)(F)F)nc2)CC1` [Example 57, 1-(4-(3-((6-(trifluoromethoxy)pyridin-3-yl)amino)pyrazin-2-yl)-3,6-dihydropyridin-1(2H)-yl)prop-2-en-1-one] gave an IC50 of 0.036 µM.

With `C=C(F)C(=O)N1CC=C(c2nccnc2Nc2ccc(OC(F)(F)F)nc2)CC1` [Example 58, 2-fluoro-1-(4-(3-((6-(trifluoromethoxy)pyridin-3-yl)amino)pyrazin-2-yl)-3,6-dihydropyridin-1(2H)-yl)prop-2-en-1-one], the IC50 with NCI-H226 cells [2] worked out at 0.283 µM.

As for `C=CC(=O)N1CC=C(c2nccnc2Nc2cnc(C(F)(F)F)nc2)CC1` [Example 59, 1-(4-(3-((2-(trifluoromethyl)pyrimidin-5-yl)amino)pyrazin-2-yl)-3,6-dihydropyridin-1(2H)-yl)prop-2-en-1-one], in the test with NCI-H226 cells [2], half-maximal inhibition (IC50) was put at 0.1 µM.

In turn, `C=C(F)C(=O)N1CC=C(c2nccnc2Nc2cnc(C(F)(F)F)nc2)CC1` [Example 60, 2-fluoro-1-(4-(3-((2-(trifluoromethyl)pyrimidin-5-yl)amino)pyrazin-2-yl)-3,6-dihydropyridin-1(2H)-yl)prop-2-en-1-one] registered a half-inhibitory concentration (IC50) with NCI-H226 cells [2] of 1.31 µM.

With `C=C(F)C(=O)N1CCC(c2nccnc2Oc2ccc(C(F)(F)F)cn2)CC1` [Example 76, 2-fluoro-1-(4-(3-((5-(trifluoromethyl)pyridin-2-yl)oxy)pyrazin-2-yl)piperidin-1-yl)prop-2-en-1-one], the IC50 turned out to be 0.424 µM in the test on NCI-H226 cells [1] and 0.104 µM with NCI-H226 cells [2].

In the case of `C=CC(=O)N1CCC(O)(c2nccnc2Oc2ccc(C(F)(F)F)nc2)CC1` [Example 83, 1-(4-hydroxy-4-(3-((6-(trifluoromethyl)pyridin-3-yl)oxy)pyrazin-2-yl)piperidin-1-yl)prop-2-en-1-one], the 50% inhibitory concentration (IC50) in the test with NCI-H226 cells [2] was 0.263 µM. This lies in the sub-micromolar range.

On to `C=CC(=O)N1CCC(c2nccnc2Oc2cnc(C(F)(F)F)nc2)CC1` [Example 91, 1-(4-(3-((2-(trifluoromethyl)pyrimidin-5-yl)oxy)pyrazin-2-yl)piperidin-1-yl)prop-2-en-1-one], for which the values for the IC50 with NCI-H226 cells [1] and in the test on NCI-H226 cells [2] were 0.075 µM and 0.042 µM, respectively.

In the case of `C=C(F)C(=O)N1CCC(c2nccnc2Oc2cnc(C(F)(F)F)nc2)CC1` [Example 92, 2-fluoro-1-(4-(3-((2-(trifluoromethyl)pyrimidin-5-yl)oxy)pyrazin-2-yl)piperidin-1-yl)prop-2-en-1-one], the IC50 in the test with NCI-H226 cells [1] was 5.64 µM; with NCI-H226 cells [2], 1.12 µM.

Take `C=C(F)C(=O)N1CCC(c2nc(C)cnc2Oc2ccc(C(F)(F)F)nc2)CC1` [Example 115, 2-fluoro-1-(4-(6-methyl-3-((6-(trifluoromethyl)pyridin-3-yl)oxy)pyrazin-2-yl)piperidin-1-yl)prop-2-en-1-one]: the figures for the half-maximal inhibitory concentration (IC50) in the test with NCI-H226 cells [1] and in the test on NCI-H226 cells [2] were 0.074 µM and 0.041 µM, respectively.

Compound `C=CC(=O)N1CCN(c2ccnnc2Nc2ccc(C(F)(F)F)cn2)CC1` [Example 120, 1-(4-(3-((5-(trifluoromethyl)pyridin-2-yl)amino)pyridazin-4-yl)piperazin-1-yl)prop-2-en-1-one] came in with a concentration for half-maximal inhibition (IC50) in the test with NCI-H226 cells [2] of 0.205 µM.

For the compound `C=CC(=O)N1CCN(c2ccnnc2Nc2ccc(C(F)(F)F)nc2)CC1` [Example 121, 1-(4-(3-((6-(trifluoromethyl)pyridin-3-yl)amino)pyridazin-4-yl)piperazin-1-yl)prop-2-en-1-one], the half-maximal inhibitory concentration (IC50) with NCI-H226 cells [2] amounted to 1.4 µM.

Regarding `C=CC(=O)N1CC=C(c2cccnc2Nc2ccc(OC(F)(F)F)nc2)CC1` [Example 147, 1-(2-((6-(trifluoromethoxy)pyridin-3-yl)amino)-3′,6′-dihydro-[3,4′-bipyridin]-1′(2′H)-yl)prop-2-en-1-one], the IC50 is 0.149 µM in the test with NCI-H226 cells [2] and 2.3 nM in test [3].

With `C=CC(=O)N1CCC(n2nccc2C(=O)c2ccc(C(F)(F)F)cc2)CC1` [Example 164, 1-(4-(5-(4-(trifluoromethyl)benzoyl)-1H-pyrazol-1-yl)piperidin-1-yl)prop-2-en-1-one], the IC50 in the test with NCI-H226 cells [2] turned out to be 0.045 µM; in test [3], 0.4 nM.
